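Where inhibition never reached the appropriate level, the endpoint shown equals the highest concentration tested. Otherwise, values were interpolated linearly from a five-concentration, 48-hour dose response in 96-well plates. Here, GI50 denotes the concentration required for 50% inhibition of growth.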 The source made the active and inactive calls. Cut-off read from the data, not from the text of the source: active = GI50 up to about 1.1 µM and inactive = higher.
Assays:
Experiment in all cases: NCI tumour cell line growth inhibition, 48 h
SW-620 = system: SW-620
KM-20L2 = system: KM-20L2
HOP-62 = system: HOP-62
SF-295 = system: SF-295
MDA-MB-231 = system: MDA-MB-231
M19-MEL = system: M19-MEL
K562 = system: K562
OVCAR-3 = system: OVCAR-3
786-0 = system: 786-0
PC-3 = system: PC-3
SF-268 = system: SF-268
SNB-78 = system: SNB-78
NCI/ADR-RES = system: NCI/ADR-RES
U-251 = system: U-251
UACC-62 = system: UACC-62
HCT-116 = system: HCT-116
SR = system: SR
OVCAR-4 = system: OVCAR-4
OVCAR-8 = system: OVCAR-8
EKVX = system: EKVX
COLO 205 = system: COLO 205
M14 = system: M14
KM12 = system: KM12
IGROV-1 = system: IGROV-1
SK-MEL-5 = system: SK-MEL-5
NCI-H226 = system: NCI-H226
HOP-92 = system: HOP-92
MOLT-4 = system: MOLT-4
SNB-75 = system: SNB-75
UACC-257 = system: UACC-257
CAKI-1 = system: CAKI-1
OVCAR-5 = system: OVCAR-5
BT-549 = system: BT-549
LOX IMVI = system: LOX IMVI
MDA-MB-435 = system: MDA-MB-435
ACHN = system: ACHN
Hs-578T = system: Hs-578T
NCI-H23 = system: NCI-H23
LXFL 529 = system: LXFL 529
DU-145 = system: DU-145
DLD-1 = system: DLD-1
SK-MEL-2 = system: SK-MEL-2
RXF 393 = system: RXF 393
DMS-273 = system: DMS-273
HL-60 = system: HL-60
UO-31 = system: UO-31
MDA-N = system: MDA-N
SK-MEL-28 = system: SK-MEL-28
HCT-15 = system: HCT-15
SNB-19 = system: SNB-19
NCI-H522 = system: NCI-H522
RPMI-8226 = system: RPMI-8226
A549 = system: A549
SK-OV-3 = system: SK-OV-3
NCI-H460 = system: NCI-H460
MCF7 = system: MCF7
SN12C = system: SN12C
TK-10 = system: TK-10
CCRF-CEM = system: CCRF-CEM
HCC 2998 = system: HCC 2998
T47D = system: T47D
Malme-3M = system: Malme-3M
XF498 = system: XF498
HT-29 = system: HT-29
A498 = system: A498
HOP-18 = system: HOP-18
SF-539 = system: SF-539

## CCN(CC)CCNc1ccc2ncn3c4ccc(O)cc4c(=O)c1c23
SW-620
  GI50: 216 nM (active)
KM-20L2
  GI50: 1230 nM (inactive)
HOP-62
  GI50: 141 nM (active)
SF-295
  GI50: 216 nM (active)
MDA-MB-231
  GI50: 1650 nM (inactive)
M19-MEL
  GI50: 1380 nM (inactive)
K562
  GI50: 1040 nM (active)
OVCAR-3
  GI50: 3550 nM (inactive)
786-0
  GI50: 459 nM (active)
PC-3
  GI50: 1490 nM (inactive)
SF-268
  GI50: 721 nM (active)
SNB-78
  GI50: 541 nM (active)
NCI/ADR-RES
  GI50: 2810 nM (inactive)
U-251
  GI50: 193 nM (active)
UACC-62
  GI50: 1250 nM (inactive)
HCT-116
  GI50: 212 nM (active)
SR
  GI50: < 10 nM (active)
OVCAR-4
  GI50: 1280 nM (inactive)
OVCAR-8
  GI50: 561 nM (active)
EKVX
  GI50: 7280 nM (inactive)
COLO 205
  GI50: 769 nM (active)
M14
  GI50: 1280 nM (inactive)
KM12
  GI50: 1210 nM (inactive)
IGROV-1
  GI50: 479 nM (active)
SK-MEL-5
  GI50: 289 nM (active)
NCI-H226
  GI50: 40 nM (active)
HOP-92
  GI50: 434 nM (active)
MOLT-4
  GI50: 14.6 nM (active)
SNB-75
  GI50: 652 nM (active)
UACC-257
  GI50: 6620 nM (inactive)
CAKI-1
  GI50: 64.9 nM (active)
OVCAR-5
  GI50: 2370 nM (inactive)
BT-549
  GI50: 12000 nM (inactive)
LOX IMVI
  GI50: 327 nM (active)
MDA-MB-435
  GI50: 3670 nM (inactive)
ACHN
  GI50: 49.9 nM (active)
Hs-578T
  GI50: 3110 nM (inactive)
NCI-H23
  GI50: 194 nM (active)
LXFL 529
  GI50: 1260 nM (inactive)
DU-145
  GI50: 315 nM (active)
DLD-1
  GI50: 544 nM (active)
SK-MEL-2
  GI50: 6780 nM (inactive)
RXF 393
  GI50: 178 nM (active)
DMS-273
  GI50: 73.1 nM (active)
HL-60
  GI50: 131 nM (active)
UO-31
  GI50: 429 nM (active)
MDA-N
  GI50: 4190 nM (inactive)
SK-MEL-28
  GI50: 7760 nM (inactive)
HCT-15
  GI50: 214 nM
SNB-19
  GI50: 1010 nM (active)
NCI-H522
  GI50: 458 nM (active)
RPMI-8226
  GI50: 267 nM (active)
A549
  GI50: 24.8 nM (active)
SK-OV-3
  GI50: 785 nM (active)
NCI-H460
  GI50: 29.1 nM (active)
MCF7
  GI50: 150 nM (active)
SN12C
  GI50: 220 nM (active)
TK-10
  GI50: 3200 nM (inactive)
CCRF-CEM
  GI50: 71.9 nM (active)
HCC 2998
  GI50: 2510 nM (inactive)
T47D
  GI50: 12200 nM (inactive)
Malme-3M
  GI50: 1480 nM (inactive)
XF498
  GI50: 173 nM (active)
HT-29
  GI50: 679 nM (active)
A498
  GI50: 1120 nM (inactive)
HOP-18
  GI50: 5920 nM (inactive)
SF-539
  GI50: 458 nM (active)
